Experimental data taken from PMC3119665, “A New Drug Design Targeting the Adenosinergic System for Huntington's Disease” (PLoS ONE, 2011).

Columns and labels:
[1] = molecular target: T1, Phosphodiesterase PDE10A1 (Homo sapiens, UniProt Q9Y233); experiment: Radioligand binding panel (Table S1); details: 10 μM T1-11, n 2
T1 construct: purchased MDS Pharma Services Taiwan

[2] = tested on: PC12 cells; experiment: MTT metabolism assay, serum-deprived PC12 cells; assay type: cell-based, rat; details: 24 h
Method: Survival was assessed by the 3-(4,5-dimethylthiazol-2-yl)-2,5-diphenyltetrazolium bromide (MTT) metabolism assay as described elsewhere, [65]. In brief, cells grown on 150-mm plates were washed three times with PBS and resuspended in DMEM. Suspended cells (1×10^4 cells) were plated on 96-well plates and treated with or without the indicated reagent. After incubation for 24 h, MTT (0.5 mg/ml) was added to the medium and incubated for 3 h. After discarding the medium, DMSO (100 µl) was then applied to the well to dissolve the formazan crystals derived from the mitochondrial cleavage of the tetrazolium ring by live cells. The absorbance at 570/630 nm in each well was measured on a micro-enzyme-linked immunosorbent assay reader.

[3] = molecular target: T2, Chemokine CCR2B (Homo sapiens, UniProt P41597); experiment: Radioligand binding panel (Table S1); details: 10 μM T1-11, n 2
T2 construct: purchased MDS Pharma Services Taiwan

[4] = tested on: Glutamate, Kainate; experiment: Radioligand binding panel (Table S1); set-up: species or system rat; details: 10 μM T1-11, n 2
[5] = molecular target: T3, Bombesin BB1 (Homo sapiens, UniProt P28336); experiment: Radioligand binding panel (Table S1); details: 10 μM T1-11, n 2
T3 construct: purchased MDS Pharma Services Taiwan

[6] = tested on: Sigma, Non-Selective; experiment: Radioligand binding panel (Table S1); set-up: species or system guinea pig; details: 10 μM T1-11, n 2
[7] = tested on: Serotonin (5-Hydroxytryptamine) 5-HT1, Non-Selective; experiment: Radioligand binding panel (Table S1); set-up: species or system rat; details: 10 μM T1-11, n 2
[8] = molecular target: T4, Adrenergic α 1D (Homo sapiens, UniProt P25100); experiment: Radioligand binding panel (Table S1); details: 10 μM T1-11, n 2
T4 construct: purchased MDS Pharma Services Taiwan

[9] = tested on: R6/2 mice; experiment: Survival of R6/2 mice; assay type: in vivo; details: 0.05 mg/ml in drinking water, n = 11
From the text: Male R6/2 mice and littermate controls were originally obtained from Jackson Laboratories (Bar Harbor, ME, USA), and mated to female control mice (B6CBAFI/J). Offspring were identified by a polymerase chain reaction (PCR) genotyping technique of genomic DNA extracted from tail tissues using primers located in the transgene (5′-[…]-3′ and 5′-[…]- AGGAG-3′) to ensure that the number of CAG repeats remained approximately 150. In total, 211 R6/2 transgenic mice were used in this study. Animals were housed at the Institute of Biomedical Sciences Animal Care Facility under a 12-h light/dark cycle. Body weights of mice were recorded once daily. Animal experiments were performed under protocols approved by the Academia Sinica Institutional Animal Care and Utilization Committee, Taipei, Taiwan.
Supplementary file pone.0020934.s005.tif: Figure S5 Effect of T1-11 on the shorten lifespan and enlarged ventricle of R6/2 mice. Animals were given the vehicle (1% DMSO; CON) or T1-11 (0.05 mg/ml)-containing drinking water from the age of 7 weeks. (A) Survival was assessed. Specific comparison to R6/2 mice treated with the vehicle (p = 0.306; Mantel-Cox test). (B) Five weeks after T1-11 treatment, 3D-lMRI was performed to determine the ventricle-to-brain ratio of the indicated animals as described. * p<0.05. (TIF) Click here for additional data file.

[10] = molecular target: T5, Melatonin MT1 (Homo sapiens, UniProt P48039); experiment: Radioligand binding panel (Table S1); details: 10 μM T1-11, n 2
T5 construct: purchased MDS Pharma Services Taiwan

[11] = tested on: mutant Htt aggregates; experiment: Striatal Htt aggregates (filter retardation assay, immunofluorescence); assay type: in vivo; details: R6/2 mice, 12 weeks old, 0.05 mg/ml in drinking water
Method: SDS-insoluble mutant Htt aggregates were detected and quantified as described. A filter retardation assay was performed as described previously. Blots were blocked with 5% skim milk in phosphate-buffered saline (PBS) and incubated with an anti-Htt antibody (EM48, 1∶500; Chemicon International, Temecula, CA, USA) at 4°C overnight followed by the corresponding secondary antibody for 1 h at room temperature. Immunoreactive bands were detected by enhanced chemiluminescence (Pierce) and recorded using Kodak XAR-5 film.
Coronal serial sections (20 µm) containing the striatum (interaural 5.34 mm/bregma 1.54 mm to interaural 3.7 mm/bregma −0.1 mm) were immunohistochemically stained as described previously. Brain sections were blocked with normal goat serum and incubated overnight with an anti-Htt antibody (EM48, 1∶500) at 4°C, followed by a 2 h-incubation with a goat anti-mouse IgG conjugated to Alexa Fluor® 568 at room temperature. The nuclei were stained with Hoechst 33258. The patterns of immunostaining were analyzed with a laser confocal microscope (LSM510, Carl Zeiss MicroImaging Inc, Germany). Five different brain sections of each animal were analyzed. At least 2000 cells from each animal were used to quantify the sizes of mHtt aggregates using ImageJ software (http://rsbweb.nih.gov/ij/; Research Services Branch of the National Institute of Mental Health, Bethesda, MD, USA).

[12] = tested on: Insulin; experiment: Radioligand binding panel (Table S1); set-up: species or system rat; details: 10 μM T1-11, n 2
[13] = molecular target: T6, A2B adenosine receptor (Homo sapiens, UniProt P29275); experiment: Radioligand binding assay
T6 construct: MDS Pharma Services Taiwan
T6 sequence (P29275 1-332): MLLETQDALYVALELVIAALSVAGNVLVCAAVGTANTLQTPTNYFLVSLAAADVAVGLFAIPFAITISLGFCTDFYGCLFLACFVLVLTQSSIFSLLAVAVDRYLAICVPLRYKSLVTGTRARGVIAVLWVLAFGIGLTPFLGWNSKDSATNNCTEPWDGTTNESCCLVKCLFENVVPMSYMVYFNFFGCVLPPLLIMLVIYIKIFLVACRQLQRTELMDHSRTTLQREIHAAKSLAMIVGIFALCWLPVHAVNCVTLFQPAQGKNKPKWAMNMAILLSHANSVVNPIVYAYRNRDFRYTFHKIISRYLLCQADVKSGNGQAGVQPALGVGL

[14] = molecular target: T7, Angiotensin AT1 (Homo sapiens, UniProt P30556); experiment: Radioligand binding panel (Table S1); details: 10 μM T1-11, n 2
T7 construct: purchased MDS Pharma Services Taiwan

[15] = molecular target: T8, Serotonin (5-Hydroxytryptamine) 5-HT4 (Cavia porcellus, UniProt O70528); experiment: Radioligand binding panel (Table S1); set-up: species or system guinea pig; details: 10 μM T1-11, n 2
T8 construct: purchased MDS Pharma Services Taiwan

[16] = molecular target: T9, GABAB1A (Homo sapiens, UniProt Q9UBS5); experiment: Radioligand binding panel (Table S1); details: 10 μM T1-11, n 2
T9 construct: purchased MDS Pharma Services Taiwan

[17] = molecular target: T10, Calcitonin (Homo sapiens, UniProt P30988); experiment: Radioligand binding panel (Table S1); details: 10 μM T1-11, n 2
T10 construct: purchased MDS Pharma Services Taiwan

[18] = molecular target: T11, Leukotriene, Cysteinyl CysLT2 (Homo sapiens, UniProt Q9NS75); experiment: Radioligand binding panel (Table S1); details: 10 μM T1-11, n 2
T11 construct: purchased MDS Pharma Services Taiwan

[19] = tested on: Inositol Trisphosphate IP3; experiment: Radioligand binding panel (Table S1); set-up: species or system rat; details: 10 μM T1-11, n 2
[20] = n.s. = not significant, no significant binding at 10 µM

T7 sequence (P30556 whole entry): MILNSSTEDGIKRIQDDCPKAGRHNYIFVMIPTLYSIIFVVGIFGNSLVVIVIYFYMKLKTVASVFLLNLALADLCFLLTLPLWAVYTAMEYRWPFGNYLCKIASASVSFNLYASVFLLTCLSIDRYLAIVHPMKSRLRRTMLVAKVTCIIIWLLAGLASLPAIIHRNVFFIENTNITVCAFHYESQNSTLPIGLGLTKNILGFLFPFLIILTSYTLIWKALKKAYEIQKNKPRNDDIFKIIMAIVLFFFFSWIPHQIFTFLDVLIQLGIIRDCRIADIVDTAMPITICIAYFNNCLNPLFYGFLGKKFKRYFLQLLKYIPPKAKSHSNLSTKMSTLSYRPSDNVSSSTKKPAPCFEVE
T10 sequence (P30988 25-474): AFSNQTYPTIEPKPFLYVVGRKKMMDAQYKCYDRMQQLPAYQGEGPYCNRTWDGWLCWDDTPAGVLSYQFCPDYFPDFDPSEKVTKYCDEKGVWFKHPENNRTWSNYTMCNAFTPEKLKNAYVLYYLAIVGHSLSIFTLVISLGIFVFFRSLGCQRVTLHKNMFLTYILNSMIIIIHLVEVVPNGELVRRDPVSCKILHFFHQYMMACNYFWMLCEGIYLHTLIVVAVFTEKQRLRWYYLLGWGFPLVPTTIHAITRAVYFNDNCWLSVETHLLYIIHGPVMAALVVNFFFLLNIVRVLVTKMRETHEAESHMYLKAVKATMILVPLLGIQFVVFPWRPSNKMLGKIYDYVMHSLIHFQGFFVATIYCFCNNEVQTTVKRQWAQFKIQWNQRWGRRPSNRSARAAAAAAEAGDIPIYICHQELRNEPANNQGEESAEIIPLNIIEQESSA
T8 sequence (O70528 whole entry): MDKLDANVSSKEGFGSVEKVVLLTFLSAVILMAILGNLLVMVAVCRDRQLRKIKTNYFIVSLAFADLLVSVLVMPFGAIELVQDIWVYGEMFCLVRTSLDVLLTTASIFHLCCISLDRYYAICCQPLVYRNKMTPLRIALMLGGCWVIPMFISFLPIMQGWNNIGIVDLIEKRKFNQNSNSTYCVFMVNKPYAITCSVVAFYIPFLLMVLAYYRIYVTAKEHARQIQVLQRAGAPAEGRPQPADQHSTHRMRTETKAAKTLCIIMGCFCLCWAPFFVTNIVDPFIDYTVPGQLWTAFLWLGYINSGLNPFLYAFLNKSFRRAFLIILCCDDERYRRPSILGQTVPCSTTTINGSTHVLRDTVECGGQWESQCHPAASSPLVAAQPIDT
T1 sequence (Q9Y233 1-779 isoform Q9Y233-1): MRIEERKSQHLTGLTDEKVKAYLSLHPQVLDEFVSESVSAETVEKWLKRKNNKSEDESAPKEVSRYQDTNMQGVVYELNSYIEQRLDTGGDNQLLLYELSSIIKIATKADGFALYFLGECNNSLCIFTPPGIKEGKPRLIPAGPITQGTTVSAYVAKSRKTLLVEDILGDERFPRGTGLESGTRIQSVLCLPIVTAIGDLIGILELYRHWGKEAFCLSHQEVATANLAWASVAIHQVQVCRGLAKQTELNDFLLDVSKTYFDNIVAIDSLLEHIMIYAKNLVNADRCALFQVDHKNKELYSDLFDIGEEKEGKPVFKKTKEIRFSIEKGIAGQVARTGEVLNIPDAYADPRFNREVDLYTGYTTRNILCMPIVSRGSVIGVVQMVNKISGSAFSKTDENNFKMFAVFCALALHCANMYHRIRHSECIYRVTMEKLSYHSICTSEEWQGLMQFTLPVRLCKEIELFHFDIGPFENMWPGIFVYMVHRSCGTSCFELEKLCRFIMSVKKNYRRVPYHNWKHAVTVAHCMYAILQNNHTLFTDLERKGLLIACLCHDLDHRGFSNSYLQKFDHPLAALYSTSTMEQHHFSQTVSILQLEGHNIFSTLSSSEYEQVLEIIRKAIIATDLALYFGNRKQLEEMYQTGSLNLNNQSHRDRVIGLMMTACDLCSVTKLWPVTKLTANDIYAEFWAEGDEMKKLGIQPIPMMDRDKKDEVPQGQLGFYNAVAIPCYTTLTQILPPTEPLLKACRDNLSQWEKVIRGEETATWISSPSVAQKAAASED
T2 sequence (P41597 1-360 isoform P41597-2): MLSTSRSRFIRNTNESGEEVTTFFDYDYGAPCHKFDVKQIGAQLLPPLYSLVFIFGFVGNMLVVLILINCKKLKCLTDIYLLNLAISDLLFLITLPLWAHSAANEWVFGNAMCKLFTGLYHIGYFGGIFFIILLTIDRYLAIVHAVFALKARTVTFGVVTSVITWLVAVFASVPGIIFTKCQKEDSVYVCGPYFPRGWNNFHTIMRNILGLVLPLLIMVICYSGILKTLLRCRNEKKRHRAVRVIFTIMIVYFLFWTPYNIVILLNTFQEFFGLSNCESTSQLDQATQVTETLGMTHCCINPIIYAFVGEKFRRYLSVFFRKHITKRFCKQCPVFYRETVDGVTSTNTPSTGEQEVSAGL
T11 sequence (Q9NS75 whole entry): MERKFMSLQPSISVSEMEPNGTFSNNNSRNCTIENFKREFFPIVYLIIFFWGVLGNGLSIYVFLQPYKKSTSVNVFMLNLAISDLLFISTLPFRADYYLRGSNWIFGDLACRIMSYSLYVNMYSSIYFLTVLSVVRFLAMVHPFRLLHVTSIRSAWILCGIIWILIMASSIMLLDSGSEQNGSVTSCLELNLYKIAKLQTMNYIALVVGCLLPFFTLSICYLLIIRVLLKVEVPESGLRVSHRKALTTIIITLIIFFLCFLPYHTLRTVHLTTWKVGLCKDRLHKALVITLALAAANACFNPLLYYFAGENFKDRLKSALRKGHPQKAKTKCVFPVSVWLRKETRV
T3 sequence (P28336 whole entry): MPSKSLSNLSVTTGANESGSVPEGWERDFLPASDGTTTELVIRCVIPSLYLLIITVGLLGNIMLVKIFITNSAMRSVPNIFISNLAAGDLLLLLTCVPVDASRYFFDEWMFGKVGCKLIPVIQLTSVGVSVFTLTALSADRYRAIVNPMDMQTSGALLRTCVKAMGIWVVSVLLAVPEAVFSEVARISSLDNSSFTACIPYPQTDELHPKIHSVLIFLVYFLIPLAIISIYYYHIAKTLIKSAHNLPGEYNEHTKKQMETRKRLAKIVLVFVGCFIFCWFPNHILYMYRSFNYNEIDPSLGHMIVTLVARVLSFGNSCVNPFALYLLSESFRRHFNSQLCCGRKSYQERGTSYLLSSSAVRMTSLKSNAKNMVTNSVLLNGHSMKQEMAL
T4 sequence (P25100 whole entry): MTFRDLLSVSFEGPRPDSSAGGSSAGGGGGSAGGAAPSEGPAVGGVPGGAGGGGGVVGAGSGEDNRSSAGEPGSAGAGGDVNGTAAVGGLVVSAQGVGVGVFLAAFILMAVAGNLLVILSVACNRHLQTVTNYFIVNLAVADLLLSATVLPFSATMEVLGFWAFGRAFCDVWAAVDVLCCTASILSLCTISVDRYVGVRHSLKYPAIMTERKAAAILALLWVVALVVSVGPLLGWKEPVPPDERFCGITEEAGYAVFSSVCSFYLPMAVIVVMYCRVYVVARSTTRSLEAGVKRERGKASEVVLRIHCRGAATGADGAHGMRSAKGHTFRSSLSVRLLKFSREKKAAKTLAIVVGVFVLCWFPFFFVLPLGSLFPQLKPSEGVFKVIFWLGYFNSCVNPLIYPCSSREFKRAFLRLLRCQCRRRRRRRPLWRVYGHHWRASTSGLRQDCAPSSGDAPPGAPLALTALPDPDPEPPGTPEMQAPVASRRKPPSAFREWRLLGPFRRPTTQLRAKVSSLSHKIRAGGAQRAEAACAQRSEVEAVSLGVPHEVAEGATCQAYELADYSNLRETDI
T5 sequence (P48039 whole entry): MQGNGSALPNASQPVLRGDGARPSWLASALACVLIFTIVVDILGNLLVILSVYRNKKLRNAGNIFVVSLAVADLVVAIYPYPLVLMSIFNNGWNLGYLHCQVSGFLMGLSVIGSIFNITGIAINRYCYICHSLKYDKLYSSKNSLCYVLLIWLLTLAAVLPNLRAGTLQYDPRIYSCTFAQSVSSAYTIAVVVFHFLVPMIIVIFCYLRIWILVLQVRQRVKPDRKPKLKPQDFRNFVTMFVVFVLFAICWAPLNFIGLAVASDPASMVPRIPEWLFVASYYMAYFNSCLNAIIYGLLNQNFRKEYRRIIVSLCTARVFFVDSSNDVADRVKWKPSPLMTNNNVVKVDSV

For `OC[C@H]1O[C@@H](n2cnc3c(NCc4ccc(O)cc4)ncnc32)[C@H](O)[C@@H]1O` [T1-11, N ^6-(4-hydroxybenzyl)adenine riboside], the inhibition at 10 µM [1] was 1%, the “Protection against serum withdrawal-induced cell death (MTT)” value [2] was “protected against serum withdrawal-induced cell death in a dose-dependent manner” and the inhibition at 10 µM [3] was 0%. The “% Inhibition” value [4] was 11%, the inhibition at 10 µM [5] was -5% and the “% Inhibition” value [6] was -3%. The “% Inhibition” value [7] was 10%, the inhibition at 10 µM [8] was 8% and the Mean survival time [9] was 103.3 ± 3.9 days. For the same compound, the inhibition at 10 µM [10] was -4%, the “Formation of striatal Htt aggregates” value [11] was “markedly reduced the formation of striatal Htt aggregates” and the “% Inhibition” value [12] was 4%. The inhibition at 10 µM ([13]; 10 μM T1-11, n 2) was 0%, the IC50 [13, 20] was “n.s” and the Ki [13, 20] was “n.s”. For the same compound, the inhibition at 10 µM [14] was -5%, the inhibition at 10 µM [15] was 1% and the inhibition at 10 µM [16] was -1%. The inhibition at 10 µM [17] was 15%, the inhibition at 10 µM [18] was 10% and the “% Inhibition” value [19] was 3%.
